Patent US20260184712A1, “Heterocyclic Compounds as ENT Inhibitors and Compounds for Use in the Treatment of Cancers” (iTeos Belgium SA, priority 2022, published 2026)

Target: T1, human ENT1 (Homo sapiens, UniProt Q99808)
T1 construct: JAR cells expressing ENT1 were purchased from ATCC; host or cells: JAR cells
T1 sequence (Q99808 1-456): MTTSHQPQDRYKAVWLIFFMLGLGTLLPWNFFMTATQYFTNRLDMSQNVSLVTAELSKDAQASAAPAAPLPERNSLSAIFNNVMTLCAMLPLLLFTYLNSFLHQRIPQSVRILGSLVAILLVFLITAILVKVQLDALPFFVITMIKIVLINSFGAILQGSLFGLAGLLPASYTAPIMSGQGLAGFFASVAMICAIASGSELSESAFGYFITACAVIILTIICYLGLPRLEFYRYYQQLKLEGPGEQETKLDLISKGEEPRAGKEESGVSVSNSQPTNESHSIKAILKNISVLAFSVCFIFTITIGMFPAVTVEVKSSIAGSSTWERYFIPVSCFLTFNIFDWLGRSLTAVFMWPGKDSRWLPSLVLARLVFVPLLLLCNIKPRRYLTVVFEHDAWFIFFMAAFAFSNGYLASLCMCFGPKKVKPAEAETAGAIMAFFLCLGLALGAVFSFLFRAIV
Assay: ENT1 binding assay (competition with Sahenta-DY647 on JAR cells)
Conditions: competition with SAHENTA-DY647 binding; IC50 categorized; read-out: Binding Assay IC50
Description: Compounds of the present disclosure were assayed to show ability to bind to human ENT1. The assay is a competition between a compound of interest and Sahenta-DY647, an ENT1 inhibitor that emits fluorescence (Ex=630 nm, Em=670 nm). By measuring the fluorescence at the end of the assay, one can assess the binding potency of the compounds tested. The compounds of the present disclosure were tested and compared to known ENT inhibitors, dilazep and NBMPR:
JAR cells expressing ENT1 were purchased from ATCC® (HTB-144TM). Cells were cultured in RPMI 1640 medium (LONZA®, #BE12-702F/U1) supplemented with 10% FBS (GIBCO®, #10270-106), 10 mM Hepes (LONZA®, #BE17-737E), 1 mM Sodium Pyruvate (LONZA®, #BE13-115E), and 2% Penicillin/Streptomycin (LONZA®, #DE17-603E) at 37° C. and 5% CO2.
The assay was conducted with the following buffer on the day of the assay: HBSS (LONZA®, #LO-527F) supplemented with 10 mM Hepes (LONZA®, #BE17-737E) and 0.1% BSA (Miltenyi®, #130-091-376).
JAR cells were resuspended in the described buffer. The compounds of interest and Sahenta-DY647 were diluted 200× with the described buffer.
A total of 50,000 cells were pre-incubated for 30 min at 4° C. with the compounds of the present disclosure before adding the corresponding amount of Sahenta-DY647 (100 nM) to the minimal concentration at Bmax and incubating for an additional 30 min at 4° C. The total volume of the reaction was 100 μL (50 μL of cells, 25 μL of the compounds of the present disclosure, and 25 μL of Sahenta-DY647) in a U-bottom 96 well plate (Greiner®, #650-180). The plates were washed 2× by centrifugation (4 min, 400 rcf at 4° C.) in the same buffer. Cells were re-suspended in 70 μL of the buffer and 50 μL was transferred to a Black 384 Optiplate (PerkinElmer®, #6007279). Fluorescence (Ex=630 nm, Em=670 nm) was acquired on a Spectramax i3x (Molecular Devices®).
Dose-response data from the compounds were analyzed with Graphpad Prism 9.1.1@software, using nonlinear regression applied to a sigmoidal dose-response model and the following equation:
Y=Bottom+(Top-Bottom)/(1+10^((LogIC50−X)*HillSlope)), with a shared bottom and top between the test reagent and dipyridamole.
Data from multiple experiments were compiled by taking the average pIC50 value for the reagent in question±the standard deviation (s.d.) and expressing it as an average IC50 value in nM.
The inhibitory effect of the test compound was expressed as a percentage of the inhibition of SAHENTA-DY647 binding.

`CC1OC(n2c(NC3CCC(C)(O)CC3)nc3c(OCc4ccc([N+](=O)[O-])cc4)ncnc32)C(O)C1O` (single isomer, unassigned) [Compound 117] and `CC1OC(n2c(NC3CC(C)(O)C3)nc3c(OCc4ccc([N+](=O)[O-])cc4)ncnc32)C(O)C1O` (single isomer, unassigned) [Compound 133] fall in the same range of IC50: 1 to 20 nM for the first, 1 to 20 nM for the second.

Compared with `CC1OC(n2c(NC3CCC(C)(O)CC3)nc3c(OCc4ccc([N+](=O)[O-])cc4)ncnc32)C(O)C1O` (single isomer, unassigned) [Compound 118], `CC1OC(n2c(NC3CC(C)(O)C3)nc3c(OCc4ccc([N+](=O)[O-])cc4)ncnc32)C(O)C1O` (single isomer, unassigned) [Compound 134] is lower in IC50: 1 to 20 nM for the first, under 1 nM for the second. The second is the more potent here.

First: CC1OC(n2c(NC3CC(C)(O)C3)nc3c(N4CCc5ccc([N+](=O)[O-])cc5C4)ncnc32)C(O)C1O (single isomer, unassigned) [Compound 137]
Second: C[C@H]1O[C@@H](n2c(N[C@H]3C[C@@H](O)C3)nc3c(OCc4ccc([N+](=O)[O-])cc4)ncnc32)[C@H](O)[C@@H]1O [Compound 48]
The IC50 of the first is lower: under 1 nM for the first, 1 to 20 nM for the second.

`CC1OC(n2c(NC3CC(C)(O)C3)nc3c(N4CCc5ccc([N+](=O)[O-])cc5C4)ncnc32)C(O)C1O` (single isomer, unassigned) [Compound 141] and `C[C@H]1O[C@@H](n2c(N[C@@H]3CCC(F)(F)C3)nc3c(OCc4ccc([N+](=O)[O-])cc4)ncnc32)[C@H](O)[C@@H]1O` [Compound 83] cannot be ordered by IC50: under 1 nM for the first, under 1 nM for the second.

`Cc1cn(C2OC(C)C(O)C2O)c2ncnc(SCc3ccc([N+](=O)[O-])cc3)c12` (single isomer, unassigned) [Compound 194] and `C[C@H]1O[C@@H](n2c(N)nc3c(OCc4ccc([N+](=O)[O-])cc4)ncnc32)[C@H](O)[C@@H]1O` [Compound 4] fall in the same range of IC50: 20 to 500 nM for the first, 20 to 500 nM for the second.

First: Cc1cn(C2OC(C)C(O)C2O)c2ncnc(SCc3ccc([N+](=O)[O-])cc3)c12 (single isomer, unassigned) [Compound 286]
Second: CNc1nc2c(OCc3ccc([N+](=O)[O-])cc3)ncnc2n1[C@@H]1O[C@H](C)[C@@H](O)[C@H]1O [Compound 19]
The IC50 of the first is higher: over 500 nM for the first, 20 to 500 nM for the second.

First: C[C@H]1O[C@@H](n2c(N(C)C3CCCC3)nc3c(OCc4ccc([N+](=O)[O-])cc4)ncnc32)[C@H](O)[C@@H]1O [Compound 1]
Second: C[C@H]1O[C@@H](n2c(C(=O)NC3CCCC3)nc3c(OCc4ccc([N+](=O)[O-])cc4)ncnc32)[C@H](O)[C@@H]1O [Compound 3]
The IC50 of the first is higher: over 500 nM for the first, 20 to 500 nM for the second. The second is the more potent here.

`C[C@H]1O[C@@H](n2c(NCCOc3ccccc3)nc3c(OCc4ccc(OC(F)F)cc4)ncnc32)[C@H](O)[C@@H]1O` [Compound 7] and `C[C@H]1O[C@@H](n2c(NCCO)nc3c(OCc4ccc(OC(F)F)cc4)ncnc32)[C@H](O)[C@@H]1O` [Compound 42] fall in the same range of IC50: 1 to 20 nM for the first, 1 to 20 nM for the second.

Compared with `C[C@H]1O[C@@H](n2c(-c3cnn(C)c3)nc3c(OCc4ccc([N+](=O)[O-])cc4)ncnc32)[C@H](O)[C@@H]1O` [Compound 13], `C[C@H]1O[C@@H](n2c(Nc3cn[nH]c3)nc3c(OCc4ccc([N+](=O)[O-])cc4)ncnc32)[C@H](O)[C@@H]1O` [Compound 35] is lower in IC50: 20 to 500 nM for the first, under 1 nM for the second. The second is the more potent here.

First: Cc1cc(COc2ncnc3c2nc(NC2CCCC2)n3[C@@H]2O[C@H](C)[C@@H](O)[C@H]2O)ccn1 [Compound 15]
Second: Cc1ccc(COc2ncnc3c2nc(NC2CCCC2)n3[C@@H]2O[C@H](C)[C@@H](O)[C@H]2O)cc1 [Compound 90]
The IC50 of the first is higher: 20 to 500 nM for the first, 1 to 20 nM for the second.

`C[C@H]1O[C@@H](n2c(NCCN3CCCC3)nc3c(OCc4ccc([N+](=O)[O-])cc4)ncnc32)[C@H](O)[C@@H]1O` [Compound 32] and `C[C@H]1O[C@@H](n2c(NCCN3CCN(C)CC3)nc3c(OCc4ccc([N+](=O)[O-])cc4)ncnc32)[C@H](O)[C@@H]1O` [Compound 33] fall in the same range of IC50: 20 to 500 nM for the first, 20 to 500 nM for the second.

Compared with `CCNc1nc2c(OCc3ccc(C#N)cc3)ncnc2n1[C@@H]1O[C@H](C)[C@@H](O)[C@H]1O` [Compound 37], `C[C@H]1O[C@@H](n2c(NCCO)nc3c(OCc4ccc(C#N)cc4)ncnc32)[C@H](O)[C@@H]1O` [Compound 41] is higher in IC50: 1 to 20 nM for the first, 20 to 500 nM for the second. The first is the more potent here.

`CCNc1nc2c(OCc3ccc(OC(F)F)cc3)ncnc2n1[C@@H]1O[C@H](C)[C@@H](O)[C@H]1O` [Compound 38] and `C[C@H]1O[C@@H](n2c(NCCCS(C)(=O)=O)nc3c(OCc4ccc(OC(F)F)cc4)ncnc32)[C@H](O)[C@@H]1O` [Compound 62] fall in the same range of IC50: 1 to 20 nM for the first, 1 to 20 nM for the second.

First: C[C@H]1O[C@@H](n2c(NC3CC3)nc3c(OCc4ccc(C#N)cc4)ncnc32)[C@H](O)[C@@H]1O [Compound 39]
Second: C[C@H]1O[C@@H](n2c(NC3CCC(O)CC3)nc3c(OCc4ccc(C#N)cc4)ncnc32)[C@H](O)[C@@H]1O (stereo partly drawn) [Compound 52]
The IC50 of the first is higher: 1 to 20 nM for the first, under 1 nM for the second. The second is the more potent here.

First: C[C@H]1O[C@@H](n2c(NCCCO)nc3c(OCc4ccc(C#N)cc4)ncnc32)[C@H](O)[C@@H]1O [Compound 43]
Second: COCCCNc1nc2c(OCc3ccc(C#N)cc3)ncnc2n1[C@@H]1O[C@H](C)[C@@H](O)[C@H]1O [Compound 45]
The IC50 of the first is higher: 20 to 500 nM for the first, 1 to 20 nM for the second.

First: C[C@H]1O[C@@H](n2c(N[C@H]3C[C@H](O)C3)nc3c(OCc4ccc(C#N)cc4)ncnc32)[C@H](O)[C@@H]1O [Compound 50]
Second: C[C@H]1O[C@@H](n2c(N[C@H]3C[C@@H](O)C3)nc3c(OCc4ccc(C#N)cc4)ncnc32)[C@H](O)[C@@H]1O [Compound 51]
The IC50 of the first is lower: under 1 nM for the first, 1 to 20 nM for the second.

`C[C@H]1O[C@@H](n2c(N[C@H]3CC[C@@H](O)CC3)nc3c(OCc4ccc([N+](=O)[O-])cc4)ncnc32)[C@H](O)[C@@H]1O` [Compound 56] and `C[C@H]1O[C@@H](n2c(N[C@H]3CC[C@H](O)CC3)nc3c(OCc4ccc([N+](=O)[O-])cc4)ncnc32)[C@H](O)[C@@H]1O` [Compound 57] cannot be ordered by IC50: under 1 nM for the first, under 1 nM for the second.

Compared with `C[C@H]1O[C@@H](n2c(NCCCS(C)(=O)=O)nc3c(OCc4ccc([N+](=O)[O-])cc4)ncnc32)[C@H](O)[C@@H]1O` [Compound 60], `C[C@H]1O[C@@H](n2c(NCCCS(C)(=O)=O)nc3c(OCc4ccc(C#N)cc4)ncnc32)[C@H](O)[C@@H]1O` [Compound 61] is higher in IC50: 1 to 20 nM for the first, 20 to 500 nM for the second.

`C[C@H]1O[C@@H](n2c(Nc3cnn(C)c3)nc3c(OCc4ccc(C#N)cc4)ncnc32)[C@H](O)[C@@H]1O` [Compound 63] and `C[C@H]1O[C@@H](n2c(NCc3ncn(C)n3)nc3c(OCc4ccc(C#N)cc4)ncnc32)[C@H](O)[C@@H]1O` [Compound 69] fall in the same range of IC50: 20 to 500 nM for the first, 20 to 500 nM for the second.

`Cc1nn(C)c(C)c1CNc1nc2c(OCc3ccc([N+](=O)[O-])cc3)ncnc2n1[C@H]1O[C@H](C)[C@@H](O)[C@H]1O` [Compound 67] and `C[C@H]1O[C@@H](n2c(N[C@H]3CCC(F)(F)C3)nc3c(OCc4ccc([N+](=O)[O-])cc4)ncnc32)[C@H](O)[C@@H]1O` [Compound 84] cannot be ordered by IC50: under 1 nM for the first, under 1 nM for the second.

`Cc1ncc(CNc2nc3c(OCc4ccc(C#N)cc4)ncnc3n2[C@@H]2O[C@H](C)[C@@H](O)[C@H]2O)cn1` [Compound 71] and `COc1ncc(CNc2nc3c(OCc4ccc(C#N)cc4)ncnc3n2[C@@H]2O[C@H](C)[C@@H](O)[C@H]2O)cn1` [Compound 72] fall in the same range of IC50: 1 to 20 nM for the first, 1 to 20 nM for the second.

`C[C@H]1O[C@@H](n2c(NC3CCCC3)nc3c(OCc4ccc([N+](=O)[O-])nc4)ncnc32)[C@H](O)[C@@H]1O` [Compound 85] and `Cc1cc(COc2ncnc3c2nc(NC2CCCC2)n3[C@@H]2O[C@H](C)[C@@H](O)[C@H]2O)ccc1[N+](=O)[O-]` [Compound 86] cannot be ordered by IC50: under 1 nM for the first, under 1 nM for the second.

`C[C@H]1O[C@@H](n2c(NC3CCCC3)nc3c(OCc4ccc(OC(F)(F)F)cc4)ncnc32)[C@H](O)[C@@H]1O` [Compound 88] gave an IC50 of 1 to 20 nM.
